Target: T1, rat P2X3 receptor (Rattus norvegicus, UniProt P49654)
T1 construct: expressed in transfected cells; host or cells: CHO-K1
T1 sequence (P49654 1-397): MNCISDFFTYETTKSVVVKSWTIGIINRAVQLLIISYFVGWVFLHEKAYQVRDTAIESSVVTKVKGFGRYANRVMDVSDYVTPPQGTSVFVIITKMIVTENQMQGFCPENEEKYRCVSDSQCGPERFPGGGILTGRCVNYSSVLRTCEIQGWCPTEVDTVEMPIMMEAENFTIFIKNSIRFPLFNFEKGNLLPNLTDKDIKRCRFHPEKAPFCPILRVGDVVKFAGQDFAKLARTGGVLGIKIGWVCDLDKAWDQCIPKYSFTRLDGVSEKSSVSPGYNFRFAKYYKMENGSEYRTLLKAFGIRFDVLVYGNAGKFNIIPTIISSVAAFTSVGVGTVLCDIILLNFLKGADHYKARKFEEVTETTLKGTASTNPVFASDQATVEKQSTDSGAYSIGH
Assay: P2X3 FLIPR (Fluorometric Imaging Plate Reader) assay
Type: cell-based
Details: CHO-K1 cells transfected with cloned rat P2X3; agonist α,β-meATP 1 μM; Fluo-3 AM calcium fluorescence
Outline: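 CHO-K1 cells expressing rat P2X3 or human P2X2/3 were Fluo-3-loaded and preincubated with compound for 20 min at room temperature. Calcium responses to α,β-meATP at 1 μM (P2X3) or 5 μM (P2X2/3) were read on FLIPR as peak fluorescence. Inhibition curves were fitted by nonlinear regression.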

P2X3 (pIC50 values for the P2X3 receptor): 8.3
SMILES: Cc1ccc(-c2cc(C(=O)NC(C)c3cnccn3)cc(N(C)C(=O)C(C)C)c2)cc1 (stereo not shown) [Compound 33, 5-(Isobutyryl-methyl-amino)-4′-methyl-biphenyl-3-carboxylic acid (1-pyrazin-2-yl-ethyl)-amide]

Reference: patent publication US9505726B2, “Substituted biphenyl amides as P2X3 and P2X2/3 antagonists” (Roche Palo Alto LLC, priority 2009, dated 2016)
